According to patent publication US8343539B2, “Compounds that bind α5β1 integrin and methods of use” (Regents of the University of Minnesota, priority 2006, dated 2013):
Entries after “also recorded” stand apart in the source; their conditions may differ. Primed or numbered codes have the meaning given here. Where no end group is shown, it is not given here. [ ]: non-standard residue; d: D form. (C16)2‑Glu‑C2″ = N-terminal tail: two C16 chains, glutamic acid linker, -(CH2)2- spacer; (C16)2‑Glu‑C2 = lipid tail; Abu = CC[C@H](N)C(=O)O

Legend:
HUVECs [1] = assay: HUVEC spreading on substrates (cell area); assay type: cell-based, human; details: for HUVEC spreading (cell area): 1-24 hours; for HUVEC spreading, rank among surfaces: all times examined, 1-72 hours
Description: (§1) Cell spreading and fibronectin production experiments: Surface transferring, cell seeding, and incubation were done in the same manner as in the adhesion experiment, with a cell density of 497 cells/mm^2, and incubation times of 1, 12, 24, 48, and 72 hour. At the end of each incubation, the surfaces were removed, washed with […] of PBS, and fixed in 1 ml of 4% paraformaldehyde (Sigma) in PBS for 15 minutes at 37° C., 5% CO2. After washing with PBS, surfaces were first labeled for secreted fibronectin: surfaces were subjected to a blocking solution (0.1% BSA in PBS) for 30 minutes, incubated for 1 hour with a primary antibody specific for secreted fibronectin (mouse anti-human fibronectin (P1H11) monoclonal antibody (Chemicon Int.) at a 1:500 dilution in blocking solution, and then for 45 minutes with a secondary antibody (IgG fluorescein (FITC) conjugated antibody; Chemicon Int.) at a 1:200 dilution in PBS. As a final step, cell membranes and nuclei were stained using the Image-iT™ LIVE Plasma Membrane and Nuclear Labeling Kit following the manufacturer's protocol for labeling fixed cells (Molecular Probes). After final washing, surfaces were mounted onto glass slides and stored at 4° C. protected from light. An inverted fluorescent microscope (Nikon Eclipse TE200 with Pixcell II LCM) was used for imaging. Fibronectin production was assessed visually, by comparing 10-20 fluorescence images from two samples for each substrate (two independent experiments performed at different days). Cell spreading was quantified from two samples per substrate (two independent experiments performed at different days) by measuring cell area with the NIH imaging software.

HUVECs [2] = assay: Extracellular fibronectin production by HUVECs (Example 1); assay type: cell-based, human; details: for Fibronectin production by adhered HUVECs: 12 and 24 hours; for Fibronectin secretion by adhered HUVECs: after 48 hours
Description: as §1

integrin αvβ3 = biological target: T1, integrin αvβ3 (Homo sapiens, UniProt P05106+P06756); assay: Adhesion blocking with anti-integrin αvβ3 antibody (LM609); assay type: cell-based; details: anti-αvβ3 antibody 20 μg/ml, 1 hour, HUVECs 249 cells/mm^2
T1 construct: HUVECs were prepared and counted as described in the cell adhesion protocol; endogenous in cells; host or cells: HUVEC (human umbilical vein endothelial cells)
Description: Adhesion blocking experiments: Blocking experiments were done using mouse anti-human integrin as (P1D6), β1 (P5D2), α5β1 (JBS5), and αvβ3 (LM609) monoclonal antibodies (Chemicon Int.). All surfaces were transferred to 24- or 12-well plates and pre-incubated in 0.1% BSA media as described above. HUVECs were prepared and counted as described in the cell adhesion protocol. Cells were blocked by mixing the cell suspension with the appropriate antibody in 0.1% BSA media, and incubating for 30 minutes at 37° C., 5% CO2 with constant agitation. Blocked cells were then released onto LB and FN surfaces and allowed to adhere for 1 hour at 37° C., 5% CO2. […] Following incubation, surfaces were washed, and adhered cells were quantified as described in the cell adhesion protocol.

HUVECs [3] = assay: Actin cytoskeleton and focal adhesion staining; assay type: cell-based, human; details: for Actin fibers and focal adhesion points: 12 hours
Description: Actin cytoskeleton and focal adhesion staining: Surface transferring, cell seeding, incubation, and fixing were done as described above. Staining for the actin cytoskeleton, focal adhesions, and nucleus of attached cells was done using the Actin Cytoskeleton and Focal Adhesion Staining Kit following the manufacturer's protocol (Chemicon Int.) and using 1:350 dilution for anti-vinculin antibody, 1:200 for the secondary antibody, approximately 1:1000 dilution (equivalent to 1 unit/surface) for TRITC-conjugated phalloidin and 1:1000 for DAPI. After washing, surfaces were mounted onto glass slides and stored at 4° C. protected from light. A confocal microscope (BIORAD Multiphoton Confocal 1024) was used for imaging.

HUVECs [4] = assay: HUVEC adhesion on LB membranes of peptide-amphiphiles (Example 1); assay type: cell-based, human; details: 1-72 hours, no serum
Description: Surface preparation: Peptide-amphiphiles, listed in Table 1, were synthesized as described in the literature (Berndt et al., J. Am. Chem. Soc., 1995; 117:9515-9522). Langmuir-Blodgett (LB) membranes constructed from peptide-amphiphiles were deposited onto 15 mm mica disks as described elsewhere (Kokkoli et al., Langmuir, 2004; 20:2397-2404). Shortly before cell assays, the LB films were transferred into 24-well plates containing 1× phosphate buffered saline (PBS) solution (Mediatech), without exposing surfaces to air, as they rearrange to form multilayers (Hansma et al., Method. Cell Biol., 2002; 69:163-193). After equilibrating for 5-10 minutes, PBS was exchanged with 1 ml of MCDB-131 basal media (Sigma) supplemented with 0.1% bovine serum albumin (BSA) (Sigma) and antibiotics (Sigma) (2.5 μg/ml gentamicin, 2.5 μg/ml amphotericin B, 50 U/ml penicillin, and 50 μg/ml streptomycin), referred to as 0.1% BSA media. Surfaces were equilibrated at 37° C., 5% CO2 for 30-60 minutes before adding the cells. Human fibronectin-coated round coverslips (FN) 22 mm in diameter (BD Biosciences) were put into 12-well plates and 2 ml of 0.1% BSA media was added to each well. Surfaces were equilibrated for 30-60 minutes at 37° C., 5% CO2.
Cell culture: Human umbilical vein endothelial cells, HUVECs, (Cambrex Corporation) were cultured in MCDB-131 containing 20% fetal bovine serum (FBS) (Atlas Biologicals) at 37° C., 5% CO2. Other nutrients and antibiotics supplementing the media were added based on an optimal HUVEC proliferation study (Terramani et al., In Vitro Cell Dev. Biol.—Animal, 2000; 36:125-132). Media was changed in the culture flasks every other day. Cells used for adhesion and imaging studies were in passages 3-4.
Cell adhesion experiments: After cells became 90% confluent they were washed with PBS, trypsinized with 0.25% Trypsin-EDTA (Cambrex Corporation), neutralized with MCDB-131 with 2% FBS, and spun at 1000 rpm for 10 minutes. The supernatant was removed and the cell pellet was resuspended in 0.1% BSA media. Cells were counted with a hemocytometer and seeded onto LB and FN surfaces at a density of 497 cells/mm^2. Surfaces were incubated with cells in 0.1% BSA media at 37° C., 5% CO2, for 1, 4, 12, 24, 48, and 72 hours. Cell adhesion was quantified using the CyQuant Cell Proliferation Assay Kit, with a dye that binds to cellular nucleic acids, following the manufacturer's protocol (Molecular Probes). A calibration standard curve was created for each experiment. The plates were read on a SpectraMAX GeminiXS (Molecular Devices).

α5β1 integrin = α5β1 integrin (Homo sapiens, UniProt P05556+P08648); details: inferred from literature on polyglycine linkers (Petrie 2006); cited from earlier work
HUVECs [5] = assay: HUVEC adhesion timed experiments on LB membranes (Example 2); assay type: cell-based, human; details: for Maintenance / decay of HUVEC adhesion over time: up to 12 hours
Description: Surface preparation: Each peptide-amphiphile was used to form homogenous LB membranes as in previous work (Kokkoli Langmuir 2004; 20:2397-2404), except that both the water and 15 mm mica disks used had been autoclaved for sterility. All depositions were done at a surface pressure between 41 and 47 mN/m, well below the collapse pressure and in the liquid-condensed or solid phase. Approximately 90 minutes before cells were seeded on the LB films to begin cell adhesion experiments, mica surfaces were transferred into 1× phosphate buffered saline (PBS), with particular care taken to ensure films were not exposed to air. After 5-10 minutes of equilibration, surfaces were transferred into 24-well plates containing a supplemented MCDB-131 basal media (Sigma), as described in Example 1. Following surface transfer, 24-well plates were moved to a 37° C., 5% CO2 incubator for 45-60 minutes. As a control, 22 mm diameter human fibronectin-coated coverslips (BD Biosciences), referred to as FN, were put into 12-well plates, covered with 2 ml of the supplemented media, and also incubated for 45-60 minutes.
Cell culture: Human umbilical vein endothelial cells, HUVECs (Cambrex Corporation), were cultured as described previously (see Example 1). Only cells from passage 3 were used in all studies.
Cell adhesion experiments: Flasks of HUVECs with at least 90% confluency were washed with 1×PBS, trypsinized with 0.25% Trypsin-EDTA (Fisher Scientific), and neutralized with 2% fetal bovine serum in MCDB-131 basal media. The suspended cells from all flasks were placed in one 50 ml centrifuge tube and centrifuged at 1000 rpm for 5 minutes. The media was removed and the cell pellet was resuspended in the supplemented media described above. A hemocytometer was used to count the cells and then 497 cells/mm^2 were seeded onto both LB and FN surfaces. Surfaces were incubated with cells at 37° C., 5% CO2 for 1, 4, or 12 hours. Cell adhesion following these times was determined using the CyQuant cell proliferation assay kit (Molecular Probes), which measures the fluorescence of a cellular nucleic acid-binding dye using the SpectraMAX GeminiXS plate reader (Molecular Devices). Standard calibration curves were created within each experiment for both 12- and 24-well plates.

HUVECs [6] = assay: Fibronectin production staining (Example 2); assay type: cell-based, human; details: 12 hours
Description: Fibronectin production staining: Surface preparation, transfer, and cellular work were all done as described in the previous methods. Only surfaces incubated with cells for 12 hours were stained. The staining protocol, involving a primary antibody for secreted fibronectin (Chemicon), a FITC-conjugated secondary antibody (Chemicon), and the Image-iT LIVE plasma membrane and nuclear labeling kit (Molecular Probes), was done as previously described in Example 1. A single photon confocal microscope (Olympus FluoView FV1000) was used for imaging. Two slides per substrate were prepared each during 2 separate experiments and each slide was imaged 2-4 times. The final images chosen were all taken from one experiment for consistency, but were representative of the images obtained from both experiments.

[7] = biological target: T2, mouse α5β1 integrin on CT26.WT cells (mouse, UniProt P11688 45-1053; P09055 21-798); assay: flow cytometry, PR_b stealth liposomes on CT26.WT cells, 4 °C, 3 hrs
T2 construct: whole, on cells; Endogenous on mouse colon carcinoma cells; also called integrin α5β1 expressing CT26.WT cells
Description: Tubes were incubated at 4° C. or 37° C. over a rotary shaker for the specified duration of time. Cells were then pelleted and washed twice in FB. Flow cytometric analysis was carried out immediately. For peptide blocking experiments, the protocol specified above was used except cells were incubated with 200 µg/ml of free peptide-amphiphile in FB for one hour prior to incubating the cells with the liposomes. […] All experiments were repeated twice but results are presented from a single experiment.

[8] = biological target: T2, mouse α5β1 integrin on CT26.WT cells; assay: flow cytometry, liposomes on CT26.WT cells, 4 °C, 3 hrs

T2 sequence (P11688 45-1053, chain 1 of 2): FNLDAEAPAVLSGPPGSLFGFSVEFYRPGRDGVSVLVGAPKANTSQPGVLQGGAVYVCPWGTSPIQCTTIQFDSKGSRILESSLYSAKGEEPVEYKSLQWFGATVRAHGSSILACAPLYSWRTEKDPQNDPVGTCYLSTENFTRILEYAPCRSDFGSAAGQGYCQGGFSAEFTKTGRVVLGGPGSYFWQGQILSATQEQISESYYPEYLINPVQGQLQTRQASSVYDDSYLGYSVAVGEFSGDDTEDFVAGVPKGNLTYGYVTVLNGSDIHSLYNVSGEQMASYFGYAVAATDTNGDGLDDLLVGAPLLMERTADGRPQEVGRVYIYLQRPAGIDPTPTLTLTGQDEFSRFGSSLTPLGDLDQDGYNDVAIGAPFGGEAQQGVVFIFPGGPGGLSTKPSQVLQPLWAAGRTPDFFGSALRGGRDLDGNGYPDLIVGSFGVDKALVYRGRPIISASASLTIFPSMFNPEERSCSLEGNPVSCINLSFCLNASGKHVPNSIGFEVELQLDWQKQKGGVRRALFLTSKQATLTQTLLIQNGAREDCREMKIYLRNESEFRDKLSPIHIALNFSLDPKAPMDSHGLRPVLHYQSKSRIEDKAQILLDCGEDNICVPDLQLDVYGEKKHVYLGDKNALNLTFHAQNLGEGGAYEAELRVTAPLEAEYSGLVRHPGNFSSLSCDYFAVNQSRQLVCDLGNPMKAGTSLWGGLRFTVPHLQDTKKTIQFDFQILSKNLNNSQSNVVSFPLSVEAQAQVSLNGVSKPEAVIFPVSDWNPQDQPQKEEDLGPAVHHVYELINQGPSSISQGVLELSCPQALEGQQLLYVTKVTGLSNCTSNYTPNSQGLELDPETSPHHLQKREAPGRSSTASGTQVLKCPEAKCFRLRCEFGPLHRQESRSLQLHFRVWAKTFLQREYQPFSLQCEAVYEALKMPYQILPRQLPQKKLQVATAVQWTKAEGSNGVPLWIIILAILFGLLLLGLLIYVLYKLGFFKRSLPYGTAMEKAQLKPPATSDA
T2 sequence (P09055 21-798, chain 2 of 2): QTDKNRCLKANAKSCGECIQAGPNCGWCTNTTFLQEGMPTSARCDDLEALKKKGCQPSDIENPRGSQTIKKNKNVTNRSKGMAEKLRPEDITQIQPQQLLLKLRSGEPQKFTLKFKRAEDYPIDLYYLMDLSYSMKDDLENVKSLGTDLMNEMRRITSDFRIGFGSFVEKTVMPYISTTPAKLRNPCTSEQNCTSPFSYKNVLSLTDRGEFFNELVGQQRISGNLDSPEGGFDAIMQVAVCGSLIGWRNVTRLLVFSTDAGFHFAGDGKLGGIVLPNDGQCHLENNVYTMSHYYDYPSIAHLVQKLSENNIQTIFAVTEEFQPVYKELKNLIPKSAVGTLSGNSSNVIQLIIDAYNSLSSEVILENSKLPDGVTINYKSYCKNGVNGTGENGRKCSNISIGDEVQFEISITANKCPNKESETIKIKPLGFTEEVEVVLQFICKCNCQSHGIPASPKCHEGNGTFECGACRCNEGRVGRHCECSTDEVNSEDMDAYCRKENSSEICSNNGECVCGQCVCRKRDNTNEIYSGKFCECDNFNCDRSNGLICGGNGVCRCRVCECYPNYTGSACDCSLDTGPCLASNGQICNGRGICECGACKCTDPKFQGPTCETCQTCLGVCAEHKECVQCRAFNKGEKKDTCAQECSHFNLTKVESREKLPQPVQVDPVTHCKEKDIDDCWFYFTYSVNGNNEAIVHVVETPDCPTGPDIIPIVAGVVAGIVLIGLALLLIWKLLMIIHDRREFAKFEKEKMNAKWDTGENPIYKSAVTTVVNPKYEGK
T1 sequence (P06756 31-889 limits assumed): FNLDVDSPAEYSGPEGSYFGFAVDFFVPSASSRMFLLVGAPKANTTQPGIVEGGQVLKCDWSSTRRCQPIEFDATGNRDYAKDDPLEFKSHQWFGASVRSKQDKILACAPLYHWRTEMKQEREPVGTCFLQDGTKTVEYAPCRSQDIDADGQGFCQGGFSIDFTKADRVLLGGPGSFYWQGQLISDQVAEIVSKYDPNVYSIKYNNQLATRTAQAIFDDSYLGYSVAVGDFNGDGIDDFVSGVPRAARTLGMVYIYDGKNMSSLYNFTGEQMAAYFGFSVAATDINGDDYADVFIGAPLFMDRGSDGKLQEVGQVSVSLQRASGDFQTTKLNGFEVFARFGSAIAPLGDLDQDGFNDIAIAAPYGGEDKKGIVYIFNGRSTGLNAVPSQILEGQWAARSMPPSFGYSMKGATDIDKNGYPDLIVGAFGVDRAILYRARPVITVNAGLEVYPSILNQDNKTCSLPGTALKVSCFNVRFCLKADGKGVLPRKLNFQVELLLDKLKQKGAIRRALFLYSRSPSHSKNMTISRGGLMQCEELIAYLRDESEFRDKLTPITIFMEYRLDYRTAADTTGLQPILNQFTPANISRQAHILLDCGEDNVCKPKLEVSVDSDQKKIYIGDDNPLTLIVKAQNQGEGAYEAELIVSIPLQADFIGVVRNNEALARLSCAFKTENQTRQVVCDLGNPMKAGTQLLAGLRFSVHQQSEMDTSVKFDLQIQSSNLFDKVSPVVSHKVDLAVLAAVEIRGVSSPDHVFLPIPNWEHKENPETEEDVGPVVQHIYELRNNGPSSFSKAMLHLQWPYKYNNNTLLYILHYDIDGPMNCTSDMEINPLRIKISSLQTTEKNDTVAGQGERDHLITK
T1 sequence (P06756 891-1048 partner limits assumed): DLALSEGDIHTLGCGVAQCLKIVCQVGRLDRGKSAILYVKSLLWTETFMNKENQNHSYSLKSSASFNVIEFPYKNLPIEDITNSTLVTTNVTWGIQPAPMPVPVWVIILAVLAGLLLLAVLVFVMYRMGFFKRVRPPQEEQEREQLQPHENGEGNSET
T1 sequence (P05106 27-788): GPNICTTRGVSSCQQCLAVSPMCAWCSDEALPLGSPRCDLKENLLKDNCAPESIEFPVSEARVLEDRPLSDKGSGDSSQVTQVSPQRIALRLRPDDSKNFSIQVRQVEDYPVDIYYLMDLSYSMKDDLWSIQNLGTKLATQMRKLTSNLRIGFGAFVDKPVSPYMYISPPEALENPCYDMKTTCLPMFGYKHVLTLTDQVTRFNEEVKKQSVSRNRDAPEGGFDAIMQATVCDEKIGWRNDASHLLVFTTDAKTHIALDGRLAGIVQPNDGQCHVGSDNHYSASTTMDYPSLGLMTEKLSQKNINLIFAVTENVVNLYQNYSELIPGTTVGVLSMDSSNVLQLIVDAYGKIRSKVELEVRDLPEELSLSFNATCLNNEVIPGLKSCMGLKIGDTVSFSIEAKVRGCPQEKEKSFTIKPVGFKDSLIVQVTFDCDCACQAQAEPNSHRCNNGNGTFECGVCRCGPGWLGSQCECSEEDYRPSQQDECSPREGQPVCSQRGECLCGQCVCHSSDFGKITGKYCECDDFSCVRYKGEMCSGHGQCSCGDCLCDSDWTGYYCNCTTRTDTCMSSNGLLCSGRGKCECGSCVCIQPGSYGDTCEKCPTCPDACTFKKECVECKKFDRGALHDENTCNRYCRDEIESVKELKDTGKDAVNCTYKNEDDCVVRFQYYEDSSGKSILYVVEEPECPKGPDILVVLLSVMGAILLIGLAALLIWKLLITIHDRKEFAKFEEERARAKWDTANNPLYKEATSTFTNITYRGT

Molecule: (C16)2-Glu-C2-GRGDSP
- HUVEC spreading (cell area) (HUVECs [1]): higher compared to GRGESP, but much smaller than FN
- Fibronectin production by adhered HUVECs (HUVECs [2]): significantly less compared to FN and PR_b
- Fibronectin secretion by adhered HUVECs (HUVECs [2]): minimal fibronectin secretion
- reduction in cell adhesion compared to adhesion of non-blocked cells (integrin αvβ3): 75.99±1.51%
- Focal adhesion contacts (vinculin) (HUVECs [3]): did not form strong focal adhesion contacts
- Actin fibers and focal adhesion points (HUVECs [3]): some actin fiber formation
- Actin organization (HUVECs [3]; 24 hours): actin organization became less pronounced
- Ability of substrate to sustain HUVEC adhesion over time (HUVECs [4]): failed to sustain HUVEC adhesion after 48 hours; also recorded: failed to sustain cell adhesion after 48 hours

Molecule: (C16)2-Glu-C2-GRGESP ({(C16)2‑Glu‑C2}-GRGESP) [negative control peptide-amphiphile]
- HUVEC spreading (cell area) (HUVECs [1]): smallest
- Fibronectin production by adhered HUVECs (HUVECs [2]): significantly less compared to FN and PR_b
- Fibronectin secretion by adhered HUVECs (HUVECs [2]): minimal fibronectin secretion
- Actin fibers and focal adhesion points (HUVECs [3]): no distinct actin fibers and very few focal adhesion points
- Ability of substrate to sustain HUVEC adhesion over time (HUVECs [4]): failed to sustain cell adhesion after 48 hours

Molecule: (C16)2-Glu-C2-KSSPHSRNGGGGGGGGGGRGDSP ({(C16)2‑Glu‑C2}-KSSPHSRNGGGGGGGGGGRGDSP) [Pr_c]
- Specificity for the α5β1 integrin (α5β1 integrin): not specific to the α5β1 integrin
- HUVEC adhesion level (description) (HUVECs [5]; 1, 4 and 12 hours): high adhesion at 1 hour
- Maintenance / decay of HUVEC adhesion over time (HUVECs [5]): not maintained at longer time periods

Molecule: (C16)2-Glu-C2-KSSPHSRNSSSSSSSSSSRGDSP ({(C16)2‑Glu‑C2}-KSSPHSRNSSSSSSSSSSRGDSP) [Pr_d]
- HUVEC adhesion level (description) (HUVECs [5]; 1, 4 and 12 hours): good adhesion out to 4 hours
- Maintenance / decay of HUVEC adhesion over time (HUVECs [5]): extreme drop-off at 12 hours

Molecule: (C16)2-Glu-C2-PHSRNSGSGSGSGRGDSP ({(C16)2‑Glu‑C2}-PHSRNSGSGSGSGRGDSP) [PR_a]
- HUVEC spreading (cell area) (HUVECs [1]): mostly spread
- HUVEC spreading, rank among surfaces (HUVECs [1]): third
- HUVEC adhesion compared with FN (HUVECs [5]; 1 hour): no statistical difference
- HUVEC adhesion compared with FN (HUVECs [5]; 4 hours): no difference in adhesion
- HUVEC adhesion compared with FN (HUVECs [5]; 12 hours): statistically higher than FN
- Ability of substrate to sustain HUVEC adhesion over time (HUVECs [4]): effectively adhered

Molecule: (C16)2-Glu-C2-PHSRNSGSGSGSGSGRGDSP ({(C16)2‑Glu‑C2}-PHSRNSGSGSGSGSGRGDSP) [Pr_e]
- HUVEC adhesion compared with FN, overall (HUVECs [5]; 1, 4 and 12 hours): superior cell adhesion performance; also recorded: outperformed
- HUVEC adhesion compared with Pr_a, overall (HUVECs [5]; 1, 4 and 12 hours): superior cell adhesion performance; also recorded: outperformed
- HUVEC adhesion compared with FN (HUVECs [5]; 1 hour): higher HUVEC adhesion
- HUVEC adhesion compared with Pr_a (HUVECs [5]; 1 hour): higher HUVEC adhesion
- HUVEC adhesion compared with FN (HUVECs [5]; 4 hours): higher adhesion than FN
- HUVEC adhesion compared with Pr_a (HUVECs [5]; 4 hours): no statistical difference
- HUVEC adhesion compared with FN (HUVECs [5]; 12 hours): statistically higher than FN
- HUVEC adhesion compared with Pr_a (HUVECs [5]; 12 hours): not statistically different

Molecule: FN: Human fibronectin-coated round coverslips (BD Biosciences), positive control
- HUVEC spreading (cell area) (HUVECs [1]): mostly spread
- HUVEC spreading, rank among surfaces (HUVECs [1]): second
- Fibronectin (ECM) production by adhered HUVECs (HUVECs [6]): allow both cell adhesion and ECM production; also recorded: allowed attached cells to produce fibronectin
- Fibronectin secretion by adhered HUVECs (HUVECs [2]): fully covered with secreted fibronectin
- Actin stress fibers and focal contacts (HUVECs [3]; 1-72 hours): displayed actin stress fibers and focal contacts

B1: PR_b peptide-amphiphile (C16)2-Glu-C2-KSSPHSRNSGSGSGSGSGRGDSP (peptide)
peptide: {(C16)2‑Glu‑C2″}-KSSPHSRNSGSGSGSGSGRGDSP
- reduction of binding against stealth liposomes with about 2.5 mol % PR_b [7]: 10 fold
- increase of binding against 2.5 mol % GRGDSP low PEG2000 liposomes [8]: ~100 fold

B2: GRGDSP peptide-amphiphile (C16)2-Glu-C2-KAbuGRGDSPAbuK (peptide)
peptide: {(C16)2‑Glu‑C2}-K[Abu]GRGDSP[Abu]K
notes: also called GRGDSP-targeted liposomes; GRGDSP-functionalized liposomes
- binding result [8]: binds
